Assay results as given in the NIST ThermoML archive (doi:10.1021/je800653d).
Numbers after ± are expanded uncertainties.

Key:
[1] = xn = mol fraction of the nth substance listed; conditions: 101 kPa, Liquid, x2 = 0; for speed of sound: Linear variable-path acoustic interferometer; for viscosity: Capillary tube (Ostwald / Ubbelohde) method
[2] = 101 kPa, Liquid; for speed of sound: Linear variable-path acoustic interferometer; for viscosity: Capillary tube (Ostwald / Ubbelohde) method

CCCCOC(C)=O [butyl ethanoate] + O=S1(=O)CCCC1
[1]
Conditions	mass density [kg/m3]	speed of sound [m/s]	viscosity [mPa·s]
298.15 K	875.6 ± 0.7	1203 ± 5	–
303.15 K	871.6 ± 0.8	1176 ± 5	0.6072 ± 0.0061
308.15 K	867.1 ± 0.8	1155 ± 5	0.5687 ± 0.0057
313.15 K	862 ± 0.8	1135 ± 5	0.534 ± 0.0054

O=S1(=O)CCCC1 [sulfolane]
[2]
Conditions	mass density [kg/m3]	speed of sound [m/s]	viscosity [mPa·s]
298.15 K	1263.9 ± 1.3	1601 ± 7	–
303.15 K	1261.8 ± 1.3	1588 ± 7	10.03 ± 0.079
308.15 K	1257 ± 1.3	1576 ± 7	8.795 ± 0.07
313.15 K	1251.6 ± 1.3	1558 ± 7	7.837 ± 0.063

CCCOC(C)=O [propyl ethanoate] + O=S1(=O)CCCC1
[1]
Conditions	mass density [kg/m3]	speed of sound [m/s]	viscosity [mPa·s]
298.15 K	883.7 ± 0.7	1156 ± 5	–
303.15 K	877.7 ± 0.8	1149 ± 5	0.4878 ± 0.0054
308.15 K	873.1 ± 0.8	1139 ± 5	0.4595 ± 0.0048
313.15 K	866.7 ± 0.8	1126 ± 5	0.4329 ± 0.0046

CCCOC(C)=O [propyl ethanoate]
[2]
Conditions	mass density [kg/m3]	speed of sound [m/s]	viscosity [mPa·s]
298.15 K	883.7 ± 0.7	1156 ± 5	–
303.15 K	877.7 ± 0.8	1149 ± 5	0.4878 ± 0.0054
308.15 K	873.1 ± 0.8	1139 ± 5	0.4595 ± 0.0048
313.15 K	866.7 ± 0.8	1126 ± 5	0.4329 ± 0.0046

CCCCOC(C)=O [butyl ethanoate]
[2]
Conditions	mass density [kg/m3]	speed of sound [m/s]	viscosity [mPa·s]
298.15 K	875.6 ± 0.7	1203 ± 5	–
303.15 K	871.6 ± 0.8	1176 ± 5	0.6072 ± 0.0061
308.15 K	867.1 ± 0.8	1155 ± 5	0.5687 ± 0.0057
313.15 K	862 ± 0.8	1135 ± 5	0.534 ± 0.0054

CCOC(C)=O [ethyl acetate] + O=S1(=O)CCCC1
[1]
Conditions	mass density [kg/m3]	speed of sound [m/s]	viscosity [mPa·s]
298.15 K	895.1 ± 0.8	1142 ± 5	–
303.15 K	889.4 ± 0.8	1122 ± 5	0.3806 ± 0.0041
308.15 K	883.9 ± 0.8	1101 ± 5	0.3622 ± 0.004
313.15 K	875.8 ± 0.8	1082 ± 5	0.3426 ± 0.0038

CCOC(C)=O [ethyl acetate]
[2]
Conditions	mass density [kg/m3]	speed of sound [m/s]	viscosity [mPa·s]
298.15 K	895.1 ± 0.8	1142 ± 5	–
303.15 K	889.4 ± 0.8	1122 ± 5	0.3806 ± 0.0041
308.15 K	883.9 ± 0.8	1101 ± 5	0.3622 ± 0.004
313.15 K	875.8 ± 0.8	1082 ± 5	0.3426 ± 0.0038
